Where “and” joins values, the source holds several entries; their conditions need not be identical. Equal values may be shown once.
Test system: CBDRx Cherry hemp clones
Assay: Foliar spray of MS, MDJ and MS+MDJ on hemp clones: biomass, cannabinoid and terpene analysis
Type: in vivo, Cannabis spp.
Set-up: CBDA / CBD / THCA / Total CBG / Total cannabinoids: unit not given here
Conditions: for plants died before the end of the experiment: four plants per treatment group
Method: Methyl salicylate (MS) is an antagonistic compound to the jasmonates. To investigate the effect of MS alone and in conjunction with MDJ, MS (CAS No.: 119-36-8), MDJ, and the combination (MS+MDJ) were applied by foliar spray to CBDRx Cherry hemp clones once per week during both vegetative and flowering phases. Plants were transplanted into 1-gallon pots with Red's soil and put into vegetative light cycle (18L/6D). […] Plants were grown under a total of 12 Boost (Thrive Agritech, NY) 130-watt LED lights set to 18L: 6D photoperiod during the vegetative phase (2 weeks) and this was followed by a 12L: 12D photoperiod during the flowering phase (7 weeks), using the same lighting fixtures. Throughout the nine weeks, all plants were watered when needed with Jack's nutrients.
MS or MDJ treatments were applied at the following concentrations: [1 mM], [4.25 mM], [7.5 mM] and [10 mM]. Each concentration was prepared from a one molar stock solution diluted with RO water and TWEEN®-20 (1M stock) was added. Each plant was sprayed till dripping, which was approximately 50-75 ml. To apply the combination of the two biochemicals, MS and MDJ were sprayed separately but simultaneously, to ensure each compound was applied evenly onto the plant. Each compound was applied using a SPRAYMASTER Chemical Sprayer (King of Prussia, Pa.).
Plants were harvested two months after transplant. After harvesting, plants were air dried at room temperature for two weeks. Once plants were sufficiently dry, above ground dry weights were recorded and dried flower samples were collected and sent to a third-party lab for terpene and cannabinoid analysis. Two plants (#3 and #4) in treatment group MDJ [7.5] mM, two plants (#3 and #4) in MS [4.25] mM, one plant (#4) in MS [7.5], and one plant (#4) in MDJ [10] died before the end of the experiment.

[1] = 1 mM foliar spray, Avg. of group
[2] = 1 mM foliar spray, individual plant
[3] = 4.25 mM foliar spray, Avg. of group
[4] = 4.25 mM foliar spray, individual plant
[5] = 7.5 mM foliar spray, Avg. of group
[6] = 7.5 mM foliar spray, individual plant
[7] = 10 mM foliar spray, Avg. of group
[8] = 10 mM foliar spray, individual plant

CCCCCC1C(=O)CCC1CC(=O)OC (centres unmarked) [MDJ, methyl dihydrojasmonate]
Alpha-bisabolol [1]: 0.109 % wt/wt
Alpha-humulene [1]: 0.08163 % wt/wt
Beta-caryophyllene [1]: 0.2027 % wt/wt
CBCA [1]: 0.64
CBD [1]: 0.105
CBDA [1]: 12.99
CBGA [1]: 0.3425
Limonene [1]: 0.1362 % wt/wt
THCA [1]: 0.565
Total CBD [1]: 11.4975
Total CBG [1]: 4.2075
Total cannabinoids [1]: 14.6425
Total d9THC [1]: 0.495
alpha-pinene [1]: 0.02277 % wt/wt
beta-myrcene [1]: 1.04 % wt/wt
beta-pinene [1]: 0.0188 % wt/wt
total terpenes [1]: 1.7075 % wt/wt
Alpha-bisabolol [2]: 0.1238 % wt/wt and 0.1069 % wt/wt and 0.094 % wt/wt and 0.1113 % wt/wt
Alpha-humulene [2]: 0.0944 % wt/wt and 0.0784 % wt/wt and 0.0831 % wt/wt and 0.0706 % wt/wt
Beta-caryophyllene [2]: 0.2352 % wt/wt and 0.2003 % wt/wt and 0.2076 % wt/wt and 0.1676 % wt/wt
CBCA [2]: 0.57 and 0.71 and 0.64 (2×)
CBD [2]: 0.16 and 0 and 0.12 and 0.14
CBDA [2]: 11.86 and 14.25 and 13.12 and 12.73
CBGA [2]: 0.28 and 0.44 and 0.34 and 0.31
Limonene [2]: 0.1352 % wt/wt and 0.1309 % wt/wt and 0.1572 % wt/wt and 0.1215 % wt/wt
THCA [2]: 0.52 and 0.63 and 0.57 and 0.54
Total CBD [2]: 10.55 and 12.5 and 11.63 and 11.31
Total CBG [2]: 0.24 and 16.03 and 0.29 and 0.27
Total cannabinoids [2]: 13.39 and 16.03 and 14.79 and 14.36
Total d9THC [2]: 0.45 and 0.55 and 0.5 and 0.48
alpha-pinene [2]: 0.0293 % wt/wt and 0.0283 % wt/wt and 0.0335 % wt/wt and 0 % wt/wt
beta-myrcene [2]: 0.9825 % wt/wt and 1.0146 % wt/wt and 1.2146 % wt/wt and 0.9497 % wt/wt
beta-pinene [2]: 0.0269 % wt/wt and 0.0238 % wt/wt and 0.0245 % wt/wt and 0 % wt/wt
total terpenes [2]: 1.73 % wt/wt and 1.67 % wt/wt and 1.92 % wt/wt and 1.51 % wt/wt
Alpha-bisabolol [3]: 0.1242 % wt/wt
Alpha-humulene [3]: 0.0859 % wt/wt
Beta-caryophyllene [3]: 0.2106 % wt/wt
CBCA [3]: 0.6275
CBD [3]: 0.29
CBDA [3]: 12.9825
CBGA [3]: 0.2975
Limonene [3]: 0.1168 % wt/wt
THCA [3]: 0.565
Total CBD [3]: 11.6725
Total CBG [3]: 0.2625
Total cannabinoids [3]: 14.7625
Total d9THC [3]: 0.495
alpha-pinene [3]: 0.0132 % wt/wt
beta-myrcene [3]: 0.9189 % wt/wt
beta-pinene [3]: 0.02055 % wt/wt
total terpenes [3]: 1.5875 % wt/wt
Alpha-bisabolol [4]: 0.1239 % wt/wt and 0.1229 % wt/wt and 0.1255 % wt/wt and 0.1245 % wt/wt
Alpha-humulene [4]: 0.0851 % wt/wt and 0.0781 % wt/wt and 0.0861 % wt/wt and 0.0943 % wt/wt
Beta-caryophyllene [4]: 0.2071 % wt/wt and 0.1897 % wt/wt and 0.208 % wt/wt and 0.2377 % wt/wt
CBCA [4]: 0.63 (2×) and 0.65 and 0.6
CBD [4]: 0.28 and 0.36 and 0.38 and 0.14
CBDA [4]: 13.17 (2×) and 12.87 and 12.72
CBGA [4]: 0.33 and 0.31 and 0.26 and 0.29
Limonene [4]: 0.1049 % wt/wt and 0.1307 % wt/wt and 0.0983 % wt/wt and 0.1334 % wt/wt
THCA [4]: 0.57 (2×) and 0.56 (2×)
Total CBD [4]: 11.83 and 11.9 and 11.67 and 11.29
Total CBG [4]: 0.29 and 0.27 and 0.23 and 0.26
Total cannabinoids [4]: 14.98 and 15.06 and 14.7 and 14.31
Total d9THC [4]: 0.5 (2×) and 0.49 (2×)
alpha-pinene [4]: 0 % wt/wt (2×) and 0.0253 % wt/wt and 0.0275 % wt/wt
beta-myrcene [4]: 0.8032 % wt/wt and 1.0724 % wt/wt and 0.7447 % wt/wt and 1.0552 % wt/wt
beta-pinene [4]: 0.0189 % wt/wt and 0.021 % wt/wt and 0.019 % wt/wt and 0.0233 % wt/wt
total terpenes [4]: 1.44 % wt/wt and 1.73 % wt/wt and 1.38 % wt/wt and 1.8 % wt/wt
Alpha-bisabolol [5]: 0.112 % wt/wt
Alpha-humulene [5]: 0.08165 % wt/wt
Beta-caryophyllene [5]: 0.2043 % wt/wt
CBCA [5]: 0.675
CBD [5]: 0.125
CBDA [5]: 13.16
CBGA [5]: 0.365
Limonene [5]: 0.09595 % wt/wt
THCA [5]: 0.575
Total CBD [5]: 11.665
Total CBG [5]: 0.315
Total cannabinoids [5]: 14.9
Total d9THC [5]: 0.505
alpha-pinene [5]: 0 % wt/wt
beta-myrcene [5]: 0.7442 % wt/wt
beta-pinene [5]: 0.01015 % wt/wt
total terpenes [5]: 1.345 % wt/wt
plants died before the end of the experiment (7.5 mM foliar spray): Two plants
Alpha-bisabolol [6]: 0.1165 % wt/wt and 0.1076 % wt/wt
Alpha-humulene [6]: 0.0802 % wt/wt and 0.0831 % wt/wt
Beta-caryophyllene [6]: 0.2 % wt/wt and 0.2086 % wt/wt
CBCA [6]: 0.63 and 0.72
CBD [6]: 0.14 and 0.11
CBDA [6]: 12.43 and 13.89
CBGA [6]: 0.36 and 0.37
Limonene [6]: 0.0965 % wt/wt and 0.0954 % wt/wt
THCA [6]: 0.53 and 0.62
Total CBD [6]: 11.04 and 12.29
Total CBG [6]: 0.31 and 0.32
Total cannabinoids [6]: 14.09 and 15.71
Total d9THC [6]: 0.47 and 0.54
alpha-pinene [6]: 0 % wt/wt
beta-myrcene [6]: 0.7818 % wt/wt and 0.7066 % wt/wt
beta-pinene [6]: 0.0203 % wt/wt and 0 % wt/wt
total terpenes [6]: 1.39 % wt/wt and 1.3 % wt/wt
Alpha-bisabolol [7]: 1.477 % wt/wt
Alpha-humulene [7]: 0.1323 % wt/wt
Beta-caryophyllene [7]: 0.0874 % wt/wt
CBCA [7]: 0.643
CBD [7]: 0.24
CBDA [7]: 12.936
CBGA [7]: 0.33
Limonene [7]: 0.2188 % wt/wt
THCA [7]: 0.56
Total CBD [7]: 11.58
Total CBG [7]: 0.29
Total cannabinoids [7]: 14.71
Total d9THC [7]: 0.493
alpha-pinene [7]: 0.023 % wt/wt
beta-myrcene [7]: 0.1067 % wt/wt
beta-pinene [7]: 0.8058 % wt/wt
total terpenes [7]: 0.023 % wt/wt
plants died before the end of the experiment (10 mM foliar spray): one plant
Alpha-bisabolol [8]: 0.1507 % wt/wt and 0.143 % wt/wt and 0.1033 % wt/wt
Alpha-humulene [8]: 0.0955 % wt/wt and 0.0751 % wt/wt and 0.0916 % wt/wt
Beta-caryophyllene [8]: 0.2372 % wt/wt and 0.1978 % wt/wt and 0.2214 % wt/wt
CBCA [8]: 0.62 and 0.71 and 0.6
CBD [8]: 0.18 and 0.34 and 0.2
CBDA [8]: 12.76 and 14.33 and 11.72
CBGA [8]: 0.26 and 0.41 and 0.32
Limonene [8]: 0.1165 % wt/wt and 0.0884 % wt/wt and 0.1154 % wt/wt
THCA [8]: 0.56 and 0.62 and 0.5
Total CBD [8]: 11.36 and 12.9 and 10.48
Total CBG [8]: 0.23 and 0.36 and 0.28
Total cannabinoids [8]: 14.38 and 16.41 and 13.34
Total d9THC [8]: 0.49 and 0.55 and 0.44
alpha-pinene [8]: 0 % wt/wt
beta-myrcene [8]: 0.8838 % wt/wt and 0.6844 % wt/wt and 0.8492 % wt/wt
beta-pinene [8]: 0.0249 % wt/wt and 0.0217 % wt/wt and 0.0224 % wt/wt
total terpenes [8]: 1.62 % wt/wt and 1.3 % wt/wt and 1.51 % wt/wt
plant growth effects on clonal hemp plants in the vegetative stage (all concentrations (1-10 mM), compared to all tested concentrations of MS): beneficial plant growth effects
total terpene content (application of 1 mM or 4.25 mM): increased
